One assay has as its system Plasmopara viticola. The assay is described as follows: Plasmopara viticola (downy mildew of grapevine) leaf disk assay. The assay is classed as in vivo. The conditions noted are these: foliar, 168 h, preventive, seven days after inoculation, read-out: control of fungal infection, Plasmopara viticola.
The subject of assay [1] is Puccinia recondita f.sp. tritici. The assay can be described thus: Puccinia recondita f.sp. tritici (wheat brown rust) leaf disk assay. The assay is classed as in vivo. The settings on record: foliar, 216 h, preventive, nine days after inoculation, read-out: control of fungal infection, Puccinia recondita f.sp. tritici.
The subject of a further assay is Plutella xylostella. The assay is described as follows: Plutella xylostella (Diamond back moth) artificial diet test. The conditions noted are these: 120 h, read-out: control of Plutella xylostella.
The next assay deals with Phytophthora infestans. The assay can be described thus: whole plant or invertebrate. Format: in vivo. The conditions noted are these: foliar, 96 h, read-out: control of fungal infection, Phytophthora infestans.
The next assay relates to Pyricularia oryzae. The assay can be described thus: whole plant or invertebrate. The assay is classed as in vivo. The conditions noted are these: foliar, 96 h.
The test system of the next assay is Aedes aegypti. The assay can be described thus: Aedes aegypti (Yellow fever mosquito) larvae test. Format: in vivo. The conditions noted are these: 48 h.
In assay [2] the test system is Erysiphe graminis f.sp. tritici. The assay is described as follows: Erysiphe graminis f.sp. tritici (wheat powdery mildew) leaf disk assay. Format: in vivo. The settings on record: Blumeria graminis, foliar, 96 h, preventive, four days after inoculation, read-out: control of fungal infection, Erysiphe graminis fsp. tritici.
Where [3] appears, read: read-out: control of fungal infection, Pyricularia oryzae (at least 60% list).
Where [4] appears, read: read-out: control of fungal infection, Pyricularia oryzae (at least 80% list).

Read-outs that look alike come from different tables or passages of the source. Where only a bound is given, the exact number is not on record here.

As for `Fc1cccc(OC2C[C@H]3CC[C@@H](C2)N3c2ncnc3sccc23)c1` (stereo partly drawn) [Example 1.15], the pest or weed control at 200 ppm (in the assay on Plasmopara viticola; in assay [1]) was ≥ 80% throughout.
Take `Fc1ccc(CON=C2CC3CCC(C2)N3c2ncnc3sccc23)cc1F` [Example 5.185]: the pest or weed control at 200 ppm is ≥ 80% with Plutella xylostella; ≥ 80% in the assay with Phytophthora infestans; ≥ 60% in the assay with Pyricularia oryzae (setting [3]); ≥ 80% in the assay on Pyricularia oryzae (setting [4]); ≥ 80% in assay [1]; ≥ 80% in assay [2]. In addition, in the assay on Aedes aegypti, the pest or weed control at 2 ppm is ≥ 80%.
Regarding `CCc1ncnc(N2C3CCC2CC(=NOCc2nc(C)cc(Cl)n2)C3)c1Cl` [Example 5.13], the pest or weed control at 200 ppm (with Plasmopara viticola; in assay [2]) was ≥ 80% each time.
In the case of `CCC(=O)c1ccc(OC2C[C@H]3CC[C@@H](C2)N3c2ncnc3sccc23)cc1` (stereo partly drawn) [Example 1.256], the pest or weed control at 200 ppm (in the assay with Phytophthora infestans; in assay [1]) was ≥ 80% throughout. Also, the pest or weed control at 2 ppm in the assay on Aedes aegypti is ≥ 80%.
Turning to `Cc1cc(OCC=C2CC3CCC(C2)N3c2ncnc3sccc23)nc(C)n1` [Example 3.18], the pest or weed control at 200 ppm (in the assay with Plasmopara viticola; in assay [1]) was ≥ 80% throughout. Moreover, the pest or weed control at 2 ppm with Aedes aegypti was ≥ 80%.
On to `CSc1nc(C)cc(OC2C[C@H]3CC[C@@H](C2)N3c2ncnc3sccc23)n1` (stereo partly drawn) [Example 1.77], for which the pest or weed control at 200 ppm (with Plasmopara viticola; in assay [2]) was ≥ 80% in each case.
As for `FC(F)(F)c1csc(CC2CC3CCC(C2)N3c2ncnc3sccc23)n1` (stereo not drawn) [Example 7.18], the pest or weed control at 200 ppm in the assay with Plasmopara viticola was ≥ 80%; with Pyricularia oryzae (setting [3]) it was ≥ 60%; in the assay with Pyricularia oryzae (setting [4]) it was ≥ 80%; in assay [1], ≥ 80%. Also, the pest or weed control at 2 ppm in the assay on Aedes aegypti is ≥ 80%.
Turning to `CCc1ncnc(N2C3CCC2CC(=NOCc2cccc(F)c2)C3)c1Cl` [Example 5.48], the pest or weed control at 200 ppm (in the assay on Phytophthora infestans; in assay [1]; in assay [2]) was ≥ 80% throughout. Also, the pest or weed control at 2 ppm in the assay with Aedes aegypti was ≥ 80%.
`CCC1COC2(CC3CCC(C2)N3c2ncnc3sccc23)O1` (stereo not drawn) [Example 6.9]: the pest or weed control at 200 ppm (with Plasmopara viticola; in assay [1]; in assay [2]) was ≥ 80% throughout. Also, the pest or weed control at 2 ppm with Aedes aegypti was ≥ 80%.
For `Clc1cc(ON=C2CC3CCC(C2)N3c2ncnc3sccc23)nc(Cl)n1` [Example 5.154], the pest or weed control at 200 ppm in the assay on Plasmopara viticola was ≥ 80%.
For the molecule `CCc1ncnc(N2C3CCC2CC(=NOCc2ccccc2C)C3)c1Cl` [Example 5.10], the pest or weed control at 200 ppm (with Plutella xylostella; in the assay with Phytophthora infestans; in assay [1]; in assay [2]) was ≥ 80% throughout.
With `Brc1cccc(CON=C2CC3CCC(C2)N3c2ncnc3sccc23)c1` [Example 5.181], the pest or weed control at 200 ppm in the assay with Phytophthora infestans is ≥ 80%; with Pyricularia oryzae (setting [3]) it was ≥ 60%; in assay [1] it was ≥ 80%; in assay [2] it was ≥ 80%. Further, the pest or weed control at 2 ppm in the assay with Aedes aegypti is ≥ 80%.
Consider `Clc1ccc(-c2csc(CC3CC4CCC(C3)N4c3ncnc4sccc34)n2)cc1` (stereo not drawn) [Example 7.19], for which the pest or weed control at 200 ppm in the assay with Plutella xylostella and in the assay with Plasmopara viticola was ≥ 80% throughout. Besides, in the assay on Aedes aegypti, the pest or weed control at 2 ppm was ≥ 80%.
For `CCOC(=O)c1ccc(CON=C2CC3CCC(C2)N3c2ncnc3sccc23)o1` [Example 5.259], the pest or weed control at 200 ppm (in the assay on Plasmopara viticola; in assay [1]; in assay [2]) was ≥ 80% in each case.
As to `CCc1ncnc(N2C3CCC2CC(=NOCc2ccc(F)c(F)c2F)C3)c1Cl` [Example 5.81], the pest or weed control at 200 ppm was ≥ 80% with Phytophthora infestans, ≥ 60% in the assay with Pyricularia oryzae (setting [3]), ≥ 80% in assay [1] and ≥ 80% in assay [2]. In addition, the pest or weed control at 2 ppm in the assay with Aedes aegypti is ≥ 80%.
With `c1ccc(C2COC3(CC4CCC(C3)N4c3ncnc4sccc34)O2)cc1` (stereo not drawn) [Example 6.7], the pest or weed control at 200 ppm was ≥ 80% in the assay on Plasmopara viticola; ≥ 60% in the assay with Pyricularia oryzae (setting [3]); ≥ 80% in the assay on Pyricularia oryzae (setting [4]); ≥ 80% in assay [1]; ≥ 80% in assay [2]. Moreover, the pest or weed control at 2 ppm in the assay on Aedes aegypti was ≥ 80%.
On to `O=C(CC1CC2CCC(C1)N2c1ncnc2sccc12)Nc1ccc(Cl)cc1` (stereo not drawn) [Example 7.12], for which the pest or weed control at 200 ppm (in the assay on Plasmopara viticola; in assay [1]) was ≥ 80% throughout.
As for `Cc1nn(C)c2nccc(N3C4CCC3CC(=NOCc3ccccc3)C4)c12` [Example 5.253], the pest or weed control at 200 ppm with Plasmopara viticola was ≥ 80%.
Turning to `COc1cc(ON=C2CC3CCC(C2)N3c2ncnc3sccc23)nc(SC)n1` [Example 5.246], the pest or weed control at 200 ppm (with Plasmopara viticola; in assay [1]) was ≥ 80% throughout.
As for `c1ccc2nc(CON=C3CC4CCC(C3)N4c3ncnc4sccc34)ccc2c1` [Example 5.193], the pest or weed control at 200 ppm (in the assay on Plasmopara viticola; in assay [1]; in assay [2]) was ≥ 80% in each case. Also, in the assay with Aedes aegypti, the pest or weed control at 2 ppm is ≥ 80%.
Regarding `c1nc(N2C3CCC2CC(=NOCCC2CCCCC2)C3)c2ccsc2n1` [Example 5.136], in the assay on Plasmopara viticola, the pest or weed control at 200 ppm is ≥ 80%.
Consider `Fc1cc(CON=C2CC3CCC(C2)N3c2ncnc3sccc23)cc(C(F)(F)F)c1` [Example 5.231], for which the pest or weed control at 200 ppm in the assay with Plasmopara viticola was ≥ 80%; in the assay with Pyricularia oryzae (setting [3]), ≥ 60%; in assay [2], ≥ 80%.
Regarding `Clc1ccc(CON=C2CC3CCC(C2)N3c2ncnc3sccc23)cc1Cl` [Example 5.169], the pest or weed control at 200 ppm in the assay with Plutella xylostella was ≥ 80%; with Plasmopara viticola, ≥ 80%; with Pyricularia oryzae (setting [3]), ≥ 60%; in the assay with Pyricularia oryzae (setting [4]), ≥ 80%; in assay [1], ≥ 80%; in assay [2], ≥ 80%.
In the case of `Fc1cc(F)c(F)c(CON=C2CC3CCC(C2)N3c2ncnc3sccc23)c1` [Example 5.227], the pest or weed control at 200 ppm in the assay with Phytophthora infestans was ≥ 80%; in the assay with Pyricularia oryzae (setting [3]) it was ≥ 60%; in assay [1], ≥ 80%; in assay [2], ≥ 80%. Besides, the pest or weed control at 2 ppm in the assay with Aedes aegypti was ≥ 80%.
As to `CC(NC(=O)C=C1CC2CCC(C1)N2c1ncnc2sccc12)c1ccccc1` (stereo not drawn) [Example 3.22], the pest or weed control at 200 ppm (in the assay on Plasmopara viticola; in assay [1]) was ≥ 80% in each case.
Regarding `Clc1cccc(CON=C2CC3CCC(C2)N3c2ncnc3sccc23)c1` [Example 5.150], the pest or weed control at 200 ppm with Phytophthora infestans is ≥ 80%; in the assay on Pyricularia oryzae (setting [3]), ≥ 60%; in assay [1], ≥ 80%; in assay [2] it was ≥ 80%. Moreover, the pest or weed control at 2 ppm with Aedes aegypti was ≥ 80%.
On to `Fc1cccc(OCC=C2CC3CCC(C2)N3c2ncnc3sccc23)c1` [Example 3.38], for which the pest or weed control at 200 ppm in the assay with Plutella xylostella was ≥ 80%; in the assay with Plasmopara viticola it was ≥ 80%; in the assay with Pyricularia oryzae (setting [3]), ≥ 60%; with Pyricularia oryzae (setting [4]), ≥ 80%; in assay [1] it was ≥ 80%. Further, the pest or weed control at 2 ppm in the assay with Aedes aegypti was ≥ 80%.
With `c1cnc(OC2C[C@H]3CC[C@@H](C2)N3c2ncnc3sccc23)nc1` (stereo partly drawn) [Example 1.2], the pest or weed control at 200 ppm (in the assay with Phytophthora infestans; in the assay with Pyricularia oryzae (setting [4]); in assay [1]; in assay [2]) was ≥ 80% throughout.
Regarding `ClCC1COC2(CC3CCC(C2)N3c2ncnc3sccc23)O1` (stereo not drawn) [Example 6.8], the pest or weed control at 200 ppm (with Plasmopara viticola; in assay [1]; in assay [2]) was ≥ 80% in each case. Moreover, the pest or weed control at 2 ppm with Aedes aegypti is ≥ 80%.
Consider `N#Cc1ccccc1CON=C1CC2CCC(C1)N2c1ncnc2sccc12` [Example 5.191], for which the pest or weed control at 200 ppm (with Plasmopara viticola; in assay [1]; in assay [2]) was ≥ 80% throughout. The pest or weed control at 2 ppm with Aedes aegypti was ≥ 80%.
`O=C(C=C1CC2CCC(C1)N2c1ncnc2sccc12)Nc1ccc(Cl)cc1` [Example 3.17]: the pest or weed control at 200 ppm in the assay with Plasmopara viticola was ≥ 80%.
Regarding `CCc1ncnc(N2C3CCC2CC(=NOc2nc(Cl)ccc2C(F)(F)F)C3)c1Cl` [Example 5.117], the pest or weed control at 200 ppm in the assay on Plasmopara viticola was ≥ 80%.
For the molecule `Clc1cc2c(cc1CON=C1CC3CCC(C1)N3c1ncnc3sccc13)OCO2` [Example 5.250], the pest or weed control at 200 ppm (in the assay with Plasmopara viticola; in assay [1]; in assay [2]) was ≥ 80% each time. Moreover, the pest or weed control at 2 ppm in the assay on Aedes aegypti is ≥ 80%.
For `CCCNC(=O)C=C1CC2CCC(C1)N2c1ncnc(CC)c1Cl` [Example 3.5], the pest or weed control at 200 ppm (in the assay with Plasmopara viticola; in assay [1]) was ≥ 80% in each case.
`CCc1ncnc(N2C3CCC2CC(=NOCc2ccccc2OC)C3)c1Cl` [Example 5.23]: the pest or weed control at 200 ppm (with Plasmopara viticola; in assay [1]; in assay [2]) was ≥ 80% throughout.
As for `Brc1ccc(CON=C2CC3CCC(C2)N3c2ncnc3sccc23)cc1` [Example 5.158], the pest or weed control at 200 ppm (in the assay on Phytophthora infestans; in the assay on Pyricularia oryzae (setting [4]); in assay [1]; in assay [2]) was ≥ 80% throughout.
